Reference: paper PMC8207662, “Divergent camptothecin biosynthetic pathway in Ophiorrhiza pumila” (BMC Biology, 2021)
Changes are numbered by the printed parent chain.

Columns and labels:
[1] = target: T1, CaSTR3 (Camptotheca acuminata, UniProt A0A8F2YIV8); experiment: LC-MS of strictosidine formation; type: biochemical; settings: tryptamine co-substrate
T1 construct: gene STR3; recombinant from pET30a in E. coli BL21(DE3), Ni resin purified
T1 sequence (A0A8F2YIV8 31-330): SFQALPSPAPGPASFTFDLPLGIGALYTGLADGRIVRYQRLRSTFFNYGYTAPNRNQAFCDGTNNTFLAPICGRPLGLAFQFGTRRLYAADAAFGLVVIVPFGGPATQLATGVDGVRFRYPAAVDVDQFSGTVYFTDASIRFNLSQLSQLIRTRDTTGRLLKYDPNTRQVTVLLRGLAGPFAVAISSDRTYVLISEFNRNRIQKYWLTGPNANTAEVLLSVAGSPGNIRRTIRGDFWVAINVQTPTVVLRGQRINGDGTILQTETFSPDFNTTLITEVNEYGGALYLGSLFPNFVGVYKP

[2] = target: T2, CaSTR2 (Camptotheca acuminata, UniProt A0A8F2YJ04); experiment: LC-MS of strictosidine formation; type: biochemical; settings: tryptamine co-substrate
T2 construct: gene STR2; recombinant from pET30a in E. coli BL21(DE3), Ni resin purified
T2 sequence (A0A8F2YJ04 32-329): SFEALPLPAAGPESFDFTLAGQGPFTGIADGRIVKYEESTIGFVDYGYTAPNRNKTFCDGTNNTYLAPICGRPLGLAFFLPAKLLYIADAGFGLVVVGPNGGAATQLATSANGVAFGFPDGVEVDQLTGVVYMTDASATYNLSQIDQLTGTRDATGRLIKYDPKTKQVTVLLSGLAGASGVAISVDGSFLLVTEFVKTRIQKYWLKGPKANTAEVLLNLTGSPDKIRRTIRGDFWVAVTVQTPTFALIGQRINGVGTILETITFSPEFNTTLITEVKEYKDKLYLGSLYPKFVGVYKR

[3] = target: T3, CaSTR1 (Camptotheca acuminata, UniProt A0A8F2YIY3); experiment: LC-MS of strictosidine formation; type: biochemical; settings: tryptamine co-substrate
T3 construct: gene STR1; recombinant from pET30a in E. coli BL21(DE3), Ni resin purified
T3 sequence (A0A8F2YIY3 73-370): T2 sequence (A0A8F2YJ04 32-329) with S39P, L66S, G91S, V185A, V238I, V240I, Y279H

[4] = target: T4, OpLAMT (Ophiorrhiza pumila, UniProt A0A8F2YIU9); experiment: assay of secologanin formation, printed as microsome assay with recombinant OpLAMT; type: biochemical; settings: SAM
T4 construct: gene LAMT; recombinant from pET-30a in E. coli BL21(DE3), Ni resin purified
T4 sequence (A0A8F2YIU9 1-381): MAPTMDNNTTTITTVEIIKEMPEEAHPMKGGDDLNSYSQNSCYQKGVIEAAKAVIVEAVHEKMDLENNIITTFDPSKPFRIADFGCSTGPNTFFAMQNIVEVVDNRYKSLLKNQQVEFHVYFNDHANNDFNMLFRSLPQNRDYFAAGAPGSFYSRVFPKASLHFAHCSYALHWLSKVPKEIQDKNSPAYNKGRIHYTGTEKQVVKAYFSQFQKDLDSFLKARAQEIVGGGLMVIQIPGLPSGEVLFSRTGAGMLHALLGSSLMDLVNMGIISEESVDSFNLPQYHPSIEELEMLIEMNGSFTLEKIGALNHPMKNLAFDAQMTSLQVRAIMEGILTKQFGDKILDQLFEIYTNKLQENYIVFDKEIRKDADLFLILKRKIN

[5] = target: T2, CaSTR2; experiment: LC-MS of strictosidinic acid formation; type: biochemical; settings: tryptamine co-substrate
[6] = target: T5, OpSLS1 (Ophiorrhiza pumila, UniProt A0A8F2YIW0); experiment: yeast microsome assay, HPLC of secologanin; type: biochemical; settings: 1 mM NADPH; 30 °C
T5 construct: gene SLS1; expressed from pESC-Leu in yeast WAT11, microsomes
T5 sequence (A0A8F2YIW0 1-522): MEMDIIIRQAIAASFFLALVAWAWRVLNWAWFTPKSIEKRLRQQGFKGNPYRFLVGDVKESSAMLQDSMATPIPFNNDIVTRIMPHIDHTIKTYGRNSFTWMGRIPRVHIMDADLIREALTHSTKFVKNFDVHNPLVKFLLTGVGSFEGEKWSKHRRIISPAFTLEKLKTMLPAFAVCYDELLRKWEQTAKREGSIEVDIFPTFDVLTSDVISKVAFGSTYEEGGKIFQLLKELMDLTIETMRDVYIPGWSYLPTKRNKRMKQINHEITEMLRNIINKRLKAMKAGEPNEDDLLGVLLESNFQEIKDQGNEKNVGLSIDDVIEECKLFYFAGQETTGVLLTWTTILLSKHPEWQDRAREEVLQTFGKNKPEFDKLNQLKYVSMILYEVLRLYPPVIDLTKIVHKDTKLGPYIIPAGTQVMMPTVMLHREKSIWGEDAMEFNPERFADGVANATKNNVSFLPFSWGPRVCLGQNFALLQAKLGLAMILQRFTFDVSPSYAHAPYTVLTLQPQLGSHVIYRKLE

[7] = target: T6, OpSLS4 (Ophiorrhiza pumila, UniProt A0A8F3BRW9); experiment: yeast microsome assay, HPLC of secologanin; type: biochemical; settings: 1 mM NADPH; 30 °C
T6 construct: gene SLS4; expressed from pESC-Leu in yeast WAT11, microsomes

[8] = target: T7, OpSLS6 (Ophiorrhiza pumila, UniProt A0A8F3BQ54); experiment: yeast microsome assay, HPLC of secologanin; type: biochemical; settings: 1 mM NADPH; 30 °C
T7 construct: gene SLS6; expressed from pESC-Leu in yeast WAT11, microsomes
T7 sequence (A0A8F3BQ54 1-516): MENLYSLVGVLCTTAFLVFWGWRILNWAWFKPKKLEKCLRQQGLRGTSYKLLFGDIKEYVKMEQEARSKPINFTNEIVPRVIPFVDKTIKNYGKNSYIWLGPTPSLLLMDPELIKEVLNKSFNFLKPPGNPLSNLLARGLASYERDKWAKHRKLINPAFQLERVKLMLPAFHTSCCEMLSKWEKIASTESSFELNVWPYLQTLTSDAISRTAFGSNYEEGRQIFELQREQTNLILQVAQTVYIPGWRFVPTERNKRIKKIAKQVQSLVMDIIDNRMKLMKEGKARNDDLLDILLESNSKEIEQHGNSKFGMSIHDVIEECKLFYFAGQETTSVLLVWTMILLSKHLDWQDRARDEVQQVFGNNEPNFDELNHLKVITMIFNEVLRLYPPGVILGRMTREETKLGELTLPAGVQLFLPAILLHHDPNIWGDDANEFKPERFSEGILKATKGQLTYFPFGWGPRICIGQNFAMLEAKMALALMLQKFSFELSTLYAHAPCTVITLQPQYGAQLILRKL

[9] = target: T8, OpSLS3 (Ophiorrhiza pumila, UniProt A0A8F3BRG6); experiment: yeast microsome assay, HPLC of secologanin; type: biochemical; settings: 1 mM NADPH; 30 °C
T8 construct: gene SLS3; expressed from pESC-Leu in yeast WAT11, microsomes
T8 sequence (A0A8F3BRG6 1-521): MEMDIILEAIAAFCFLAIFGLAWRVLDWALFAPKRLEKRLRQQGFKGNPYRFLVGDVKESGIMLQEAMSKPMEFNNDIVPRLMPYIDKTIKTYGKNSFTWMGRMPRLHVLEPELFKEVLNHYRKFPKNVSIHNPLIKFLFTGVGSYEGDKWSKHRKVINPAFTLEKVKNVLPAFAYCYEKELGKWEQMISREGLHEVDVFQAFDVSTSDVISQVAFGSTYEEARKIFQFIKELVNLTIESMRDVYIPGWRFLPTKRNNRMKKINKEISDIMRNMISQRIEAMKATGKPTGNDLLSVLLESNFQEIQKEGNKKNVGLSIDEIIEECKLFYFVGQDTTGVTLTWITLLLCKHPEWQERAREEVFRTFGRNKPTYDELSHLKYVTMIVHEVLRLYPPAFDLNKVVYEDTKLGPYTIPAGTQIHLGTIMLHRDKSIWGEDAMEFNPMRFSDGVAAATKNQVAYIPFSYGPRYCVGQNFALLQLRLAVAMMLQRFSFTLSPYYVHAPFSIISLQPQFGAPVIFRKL

[10] = target: T9, OpSLS5 (Ophiorrhiza pumila, UniProt A0A8F3BPP9); experiment: yeast microsome assay, HPLC of secologanin; type: biochemical; settings: 1 mM NADPH; 30 °C
T9 construct: gene SLS5; expressed from pESC-Leu in yeast WAT11, microsomes
T9 sequence (A0A8F3BPP9 1-521): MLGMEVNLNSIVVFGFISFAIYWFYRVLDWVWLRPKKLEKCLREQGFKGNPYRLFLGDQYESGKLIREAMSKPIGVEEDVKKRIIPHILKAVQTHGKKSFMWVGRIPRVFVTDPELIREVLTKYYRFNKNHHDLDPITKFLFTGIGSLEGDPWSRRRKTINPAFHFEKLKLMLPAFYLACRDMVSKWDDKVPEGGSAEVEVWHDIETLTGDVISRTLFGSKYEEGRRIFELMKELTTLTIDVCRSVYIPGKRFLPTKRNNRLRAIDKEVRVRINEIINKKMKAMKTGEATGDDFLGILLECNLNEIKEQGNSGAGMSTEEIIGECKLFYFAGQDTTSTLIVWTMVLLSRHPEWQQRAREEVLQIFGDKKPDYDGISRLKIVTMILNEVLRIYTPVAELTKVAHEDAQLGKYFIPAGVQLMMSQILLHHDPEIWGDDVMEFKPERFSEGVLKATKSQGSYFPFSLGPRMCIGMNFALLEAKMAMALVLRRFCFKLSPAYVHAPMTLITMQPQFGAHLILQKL

[11] = target: T4, OpLAMT; experiment: HPLC assay, loganin formation; type: biochemical; settings: 1 mM SAM; pH 7.5; 30 °C
[12] = substrate: C=C[C@H]1[C@H](O[C@@H]2O[C@H](CO)[C@@H](O)[C@H](O)[C@H]2O)OC=C(C(=O)OC)[C@H]1CC=O; experiment: LC-MS of strictosidine formation; type: biochemical, Ophiorrhiza pumila; settings: tryptamine co-substrate
Source text: LC-MS of strictosidine formation on OpSTR | we furtherly characterized the kinetic parameters of OpSTR using LCMS

T6 sequence (A0A8F3BRW9 1-517): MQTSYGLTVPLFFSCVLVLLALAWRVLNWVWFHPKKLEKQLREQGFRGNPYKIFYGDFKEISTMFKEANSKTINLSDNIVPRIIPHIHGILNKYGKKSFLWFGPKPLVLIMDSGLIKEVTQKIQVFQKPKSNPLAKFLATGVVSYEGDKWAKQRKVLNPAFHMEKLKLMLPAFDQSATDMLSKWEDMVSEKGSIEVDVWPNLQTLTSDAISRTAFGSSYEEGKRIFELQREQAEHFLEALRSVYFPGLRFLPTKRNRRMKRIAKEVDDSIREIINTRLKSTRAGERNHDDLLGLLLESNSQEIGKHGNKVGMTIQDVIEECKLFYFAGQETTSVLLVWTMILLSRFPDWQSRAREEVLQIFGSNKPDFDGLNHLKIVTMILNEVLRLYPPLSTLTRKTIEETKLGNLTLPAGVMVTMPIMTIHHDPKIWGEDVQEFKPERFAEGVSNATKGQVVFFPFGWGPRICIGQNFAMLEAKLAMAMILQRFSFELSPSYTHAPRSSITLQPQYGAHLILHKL

**Q.** For `C=C[C@H]1[C@H](O[C@@H]2O[C@H](CO)[C@@H](O)[C@H](O)[C@H]2O)OC=C(C(=O)OC)[C@H]1CC=O` [secologanin], which “LC-MS of strictosidine formation” value [1] is on record?
**A.** NnSTR, CaSTR1, and CaSTR3 displayed substrate specificity towards secologanin only

**Q.** And the “LC-MS of strictosidine formation” value [2]?
**A.** OpSTR and CaSTR2 used both secologanin and secologanic acid activity as their substrates

**Q.** And the “LC-MS of strictosidine formation” value [3]?
**A.** NnSTR, CaSTR1, and CaSTR3 displayed substrate specificity towards secologanin only

**Q.** What does the source list for `C=C[C@@H]1C(CC=O)C(C(=O)O)=CO[C@H]1O[C@@H]1O[C@H](CO)[C@@H](O)[C@H](O)[C@H]1O` (stereo partly drawn) [secologanic acid]?
**A.** assay of secologanin formation, printed as microsome assay with recombinant OpLA [4]: a microsome assay with secologanic acid as a substrate for recombinant OpLAMT revealed methylation; LC-MS of strictosidinic acid formation [5]: OpSTR and CaSTR2 used both secologanin and secologanic acid activity as their substrates

**Q.** For `COC(=O)C1=CO[C@@H](O[C@@H]2O[C@H](CO)[C@@H](O)[C@H](O)[C@H]2O)[C@@H]2[C@@H](C)[C@@H](O)C[C@H]12` [loganin], which “yeast microsome assay, HPLC of secologanin” value [6] is on record?
**A.** five OpSLS proteins (OpSLS1, OpSLS3, OpSLS4, OpSLS5, OpSLS6) exhibited secologanin synthase activity

**Q.** What about the “yeast microsome assay, HPLC of secologanin” value [7] of the same molecule?
**A.** five OpSLS proteins (OpSLS1, OpSLS3, OpSLS4, OpSLS5, OpSLS6) exhibited secologanin synthase activity

**Q.** And the “yeast microsome assay, HPLC of secologanin” value [8]?
**A.** five OpSLS proteins (OpSLS1, OpSLS3, OpSLS4, OpSLS5, OpSLS6) exhibited secologanin synthase activity

**Q.** What about the “yeast microsome assay, HPLC of secologanin” value [9] of the same molecule?
**A.** five OpSLS proteins (OpSLS1, OpSLS3, OpSLS4, OpSLS5, OpSLS6) exhibited secologanin synthase activity

**Q.** And the “yeast microsome assay, HPLC of secologanin” value [10]?
**A.** five OpSLS proteins (OpSLS1, OpSLS3, OpSLS4, OpSLS5, OpSLS6) exhibited secologanin synthase activity

**Q.** How did the “HPLC assay, loganin formation” value [11] turn out when `C[C@@H]1[C@H]2[C@H](O[C@@H]3O[C@H](CO)[C@@H](O)[C@H](O)[C@H]3O)OC=C(C(=O)O)[C@H]2C[C@@H]1O` [loganic acid] was run?
**A.** The purified recombinant protein converted loganic acid and S-adenosyl methionine (SAM) into loganin

B1: OpSTR (Ophiorrhiza pumila) (protein)
chain: SPEFFEFIEAPSYGPNAYAFDSDGELYASVEDGRIIKYDKPSNKFLTHAVASPIWNNALCENNTNQDLKPLCGRVYDFGFHYETQRLYIADCYFGLGFVGPDGGHAIQLATSGDGVEFKWLYALAIDQQAGFVYVTDVSTKYDDRGVQDIIRINDTTGRLIKYDPSTEEVTVLMKGLNIPGGTEVSKDGSFVLVGEFASHRILKYWLKGPKANTSEFLLKVRGPGNIKRTKDGDFWVASSDNNGITVTPRGIRFDEFGNILEVVAIPLPYKGEHIEQVQEHDGALFVGSLFHEFVGILHNYKSSVDHHQEKNSGGLNASFKEFSSF
notes: recombinant from pET30a in E. coli BL21(DE3), Ni resin purified
**Q.** Which Km [12] does the source give for B1 here?
**A.** 382 ± 68.1 µM

**Q.** And the Vmax [12]?
**A.** 0.0377 µmol/min/mg

**Q.** And the kcat [12]?
**A.** 0.0524 s⁻¹

**Q.** And the kcat/Km [12]?
**A.** 137 M⁻¹ s⁻¹
